Where only a bound is given, the exact number is not on record here.

Data set [1] deals with BODIPY–BAK/Bcl‐xL protein–protein interaction (Homo sapiens, UniProt Q07817). The data set is described as follows: FA competition assay, BODIPY–BAK/Bcl-xL. The class given is binding. Particulars: 50 nM BODIPY-Bak, 150 nM Bcl-xL, top concentration 222 μM, 1 h room temperature, triplicate.
For data set [2], the target named is T1, p53/hDM2 interaction (FITC–p53_15–31 / hDM2(17-126) L33E) (Homo sapiens, UniProt Q00987, L33E).
T1 construct: hDM2(17-126)
The data set is described as follows: Fluorescence anisotropy (FA) competition assay against p53/hDM2. Particulars: for IC50: 50 nM FITC–p53(15-31), 150 nM hDM2(17-126) L33E, 40 mM phosphate buffer pH 7.5, 200 mM NaCl, 0.02 mg mL−1 BSA, 5 % DMSO, read after 1 h at room temperature, triplicate, fit ± error; for Displacement of FITC–p53_15–31 from hDM2 (in words): same conditions, lower asymptote of the competition curve not achieved at higher concentrations, IC50 ND. It is filed as binding.

The target in data set [3] is T2, FITC–NOXA B/Mcl‐1 protein–protein interaction (Homo sapiens, UniProt Q07820).
T2 construct: Mcl-1(172-327)
Briefly: FA competition assay, FITC–NOXA B/Mcl-1. The class given is binding. Conditions: 50 nM FITC-NOXA B(68-87), 150 nM Mcl-1(172-327), top concentration 222 μM, 1 h room temperature, triplicate.

A further data set has as its system α‐chymotrypsin (α‐CT). Briefly: Proteolytic stability with α-chymotrypsin (HPLC). The class given is in vitro ADME. Particulars: α-chymotrypsin type II from bovine pancreas, 1:10000 enzyme/substrate; peptide 200 μM stock in PBS pH 7.50, 2% DMSO; followed by analytical HPLC; fold versus p53_15–31. The source says: The proteolytic stability of α/β/γ‐peptides 1–8 was investigated using α‐chymotrypsin (α‐CT) as a representative protease, since this enzyme selectively hydrolyses the amide bond on the C‐terminal side of hydrophobic residues such as Leu, Trp, and Phe, all of which are present in the α/β/γ‐peptide sequences. The p53_15–31 peptide was also studied for comparison (see the Supporting Information). […] For the latter four peptides, the proteolytic activity corresponded to methyl ester hydrolysis of the C‐terminal Leu residue; in all eight cases, therefore, the hexapeptide core remained largely intact for the duration of the experiments.
IV. Proteolysis studies of peptides 1-8
α-Chymotrypsin Type II from bovine pancreas (lyophilized powder, MW = 25 kDa, ≥ 40 units/mg protein) was purchased from Sigma-Aldrich and used without further purification.
α/β/γ-Peptides and p53(15-31) peptide (200 µM stock in PBS buffer pH 7.50, 2% DMSO) were treated with α-Chymotrypsin Type II from bovine pancreas (0.02 µM stock solutions in PBS buffer pH 7.50) in a 1:10000 enzyme/substrate ratio. The degradation was followed with analytical HPLC (Ascentis® Express Peptide Column, injection volume: 20 µL, acetonitrile/water (0.1% TFA) 5-95% gradient) and the data was analysed to extract kinetic values.
1. HPLC traces of the positive control (native p53) in presence of α-Chymotrypsin
(1 picture or pasted object on this page, not shown here)

Turning to `COC(=O)[C@H](CC(C)C)NC(=O)[C@H]1CC[C@@H]1NC(=O)CC[C@H](Cc1c[nH]c2ccccc12)NC(=O)[C@H]1CC[C@@H]1NC(=O)CC[C@@H](C)NC(=O)[C@H](Cc1ccccc1)NC(=O)OC(C)(C)C` [Peptide 1], the “Inhibitory activity on BODIPY–BAK/Bcl‐xL interaction” value in data set [1] is “no inhibitory activity”. The half-maximal inhibitory concentration (IC50) in data set [2] is 57 ± 22 µM. Further, in data set [3], the “Inhibitory activity on FITC–NOXA B/Mcl‐1 interaction” value was “no inhibitory activity”. Further, the “Resistance to α‐CT relative to native p53_15–31” value in the data set on α‐chymotrypsin (α‐CT) is on record as no less than 10 fold.

On to `COC(=O)CC[C@H](CC(C)C)NC(=O)[C@H]1CC[C@@H]1NC(=O)CC[C@H](Cc1c[nH]c2ccccc12)NC(=O)[C@H]1CC[C@@H]1NC(=O)CC[C@@H](C)NC(=O)[C@H](Cc1ccccc1)NC(=O)OC(C)(C)C` [Peptide 2], for which the “Inhibitory activity on BODIPY–BAK/Bcl‐xL interaction” value in data set [1] was “no inhibitory activity”. This compound returned a half-maximal inhibitory concentration (IC50) in data set [2] of 15 ± 2 µM. Further, the “Inhibitory activity on FITC–NOXA B/Mcl‐1 interaction” value in data set [3] was “no inhibitory activity”.

In turn, `COC(=O)[C@H](CC(C)C)NC(=O)[C@H]1CC[C@@H]1NC(=O)CC[C@H](Cc1ccccc1)NC(=O)[C@H]1CC[C@@H]1NC(=O)CC[C@@H](C)NC(=O)[C@H](Cc1ccccc1)NC(=O)OC(C)(C)C` [Peptide 3] came in with a half-inhibitory concentration (IC50) in data set [2] greater than 100 µM. The “Resistance to α‐CT relative to native p53_15–31” value with α‐chymotrypsin (α‐CT) is recorded as no less than 10 fold.

On to `COC(=O)CC[C@H](CC(C)C)NC(=O)[C@H]1CC[C@@H]1NC(=O)CC[C@H](Cc1ccccc1)NC(=O)[C@H]1CC[C@@H]1NC(=O)CC[C@@H](C)NC(=O)[C@H](Cc1ccccc1)NC(=O)OC(C)(C)C` [Peptide 4], for which the half-maximal inhibitory concentration (IC50) in data set [2] was greater than 100 µM. Further, the “Resistance to α‐CT relative to native p53_15–31” value with α‐chymotrypsin (α‐CT) is reported as no less than 32 fold.

As for `COC(=O)[C@H](CC(C)C)NC(=O)[C@H]1CC[C@@H]1NC(=O)CC[C@H](Cc1c[nH]c2ccccc12)NC(=O)[C@H]1CC[C@@H]1NC(=O)CC[C@@H](C)NC(=O)[C@H](Cc1ccccc1)NC(C)=O` [Peptide 5], the IC50 in data set [2] was greater than 100 µM. In addition, the “Resistance to α‐CT relative to native p53_15–31” value in the data set on α‐chymotrypsin (α‐CT) is listed as no less than 10 fold.

With `COC(=O)CC[C@H](CC(C)C)NC(=O)[C@H]1CC[C@@H]1NC(=O)CC[C@H](Cc1c[nH]c2ccccc12)NC(=O)[C@H]1CC[C@@H]1NC(=O)CC[C@@H](C)NC(=O)[C@H](Cc1ccccc1)NC(C)=O` [Peptide 6], the “Displacement of FITC–p53_15–31 from hDM2 (in words)” value in data set [2] is recorded as “effectively displaced FITC–p53_15–31 at micromolar concentrations”. The “Resistance to α‐CT relative to native p53_15–31” value in the data set with α‐chymotrypsin (α‐CT) is on record as no less than 32 fold.

On to `COC(=O)[C@H](CC(C)C)NC(=O)[C@H]1CC[C@@H]1NC(=O)CC[C@H](Cc1ccccc1)NC(=O)[C@H]1CC[C@@H]1NC(=O)CC[C@@H](C)NC(=O)[C@H](Cc1ccccc1)NC(C)=O` [Peptide 7], for which the IC50 in data set [2] is greater than 100 µM. In the data set with α‐chymotrypsin (α‐CT), the “Resistance to α‐CT relative to native p53_15–31” value was no less than 10 fold.

`COC(=O)CC[C@H](CC(C)C)NC(=O)[C@H]1CC[C@@H]1NC(=O)CC[C@H](Cc1ccccc1)NC(=O)[C@H]1CC[C@@H]1NC(=O)CC[C@@H](C)NC(=O)[C@H](Cc1ccccc1)NC(C)=O` [Peptide 8]: the “Displacement of FITC–p53_15–31 from hDM2 (in words)” value in data set [2] is reported as “effectively displaced FITC–p53_15–31 at micromolar concentrations”.
